Test results as given in ChEMBL document CHEMBL1140005, “Phenylpropanoic acid derivatives bearing a benzothiazole ring as PPARdelta-selective agonists” (Bioorg Med Chem Lett, 2007).

Experiments:
[1] = target: T1, Peroxisome proliferator-activated receptor delta (Homo sapiens, UniProt Q03181)
T1 sequence (Q03181 whole entry): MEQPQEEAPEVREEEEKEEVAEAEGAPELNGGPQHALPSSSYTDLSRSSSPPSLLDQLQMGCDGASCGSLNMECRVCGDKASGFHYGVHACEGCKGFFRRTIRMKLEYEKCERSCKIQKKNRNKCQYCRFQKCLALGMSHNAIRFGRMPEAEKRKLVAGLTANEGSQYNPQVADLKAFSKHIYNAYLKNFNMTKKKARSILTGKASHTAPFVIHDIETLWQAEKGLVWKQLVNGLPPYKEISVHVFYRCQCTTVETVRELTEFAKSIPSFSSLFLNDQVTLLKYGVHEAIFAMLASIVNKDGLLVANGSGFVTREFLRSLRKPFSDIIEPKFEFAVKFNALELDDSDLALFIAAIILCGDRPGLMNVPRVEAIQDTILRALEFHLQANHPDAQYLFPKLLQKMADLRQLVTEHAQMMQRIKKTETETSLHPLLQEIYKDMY

[2] = target: T2, Peroxisome proliferator-activated receptor gamma (Homo sapiens, UniProt P37231); test: Agonist activity at human PPARgamma receptor expressed in HEK293 cells by GAL4 transactivation assay; format: functional, cell-based
T2 sequence (P37231 whole entry): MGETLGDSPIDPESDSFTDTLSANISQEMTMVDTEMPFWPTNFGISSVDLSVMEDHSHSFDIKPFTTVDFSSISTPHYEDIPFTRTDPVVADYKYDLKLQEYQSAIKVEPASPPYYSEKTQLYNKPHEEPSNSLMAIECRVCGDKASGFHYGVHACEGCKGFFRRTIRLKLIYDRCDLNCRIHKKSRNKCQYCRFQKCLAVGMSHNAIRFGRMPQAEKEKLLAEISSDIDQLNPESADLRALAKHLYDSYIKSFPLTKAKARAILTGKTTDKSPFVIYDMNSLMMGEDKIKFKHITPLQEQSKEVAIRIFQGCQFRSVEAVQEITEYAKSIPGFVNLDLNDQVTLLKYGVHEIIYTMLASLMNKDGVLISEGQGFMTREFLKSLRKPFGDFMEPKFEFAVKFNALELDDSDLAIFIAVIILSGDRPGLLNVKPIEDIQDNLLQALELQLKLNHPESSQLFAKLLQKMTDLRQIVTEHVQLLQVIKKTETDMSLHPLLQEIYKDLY

[3] = target: T3, Peroxisome proliferator-activated receptor alpha (Homo sapiens, UniProt Q07869); test: Agonist activity at human PPARalpha receptor expressed in HEK293 cells by GAL4 transactivation assay; format: functional, cell-based
T3 sequence (Q07869 whole entry): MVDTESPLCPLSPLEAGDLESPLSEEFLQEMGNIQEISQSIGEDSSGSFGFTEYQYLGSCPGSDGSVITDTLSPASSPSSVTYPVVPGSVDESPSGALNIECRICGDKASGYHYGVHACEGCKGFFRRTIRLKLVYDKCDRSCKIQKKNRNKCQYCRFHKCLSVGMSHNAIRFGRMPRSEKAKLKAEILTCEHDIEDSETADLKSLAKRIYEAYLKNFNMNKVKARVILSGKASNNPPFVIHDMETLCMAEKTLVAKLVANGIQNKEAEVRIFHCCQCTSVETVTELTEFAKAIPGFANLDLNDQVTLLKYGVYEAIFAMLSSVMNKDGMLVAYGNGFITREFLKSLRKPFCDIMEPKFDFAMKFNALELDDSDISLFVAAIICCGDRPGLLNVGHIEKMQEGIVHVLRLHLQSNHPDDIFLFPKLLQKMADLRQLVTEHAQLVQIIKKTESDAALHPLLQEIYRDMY

Compound	EC50 [1]	EC50 [2]	EC50 [3]
CCc1cc(OCCN(Cc2ccccc2)c2nc3ccccc3s2)ccc1CCC(=O)O	2970 nM		
Cc1cc(CCC(=O)O)ccc1OCCCN(Cc1cccs1)c1nc2ccc(Cl)cc2s1	390 nM		
CC(C)(C)c1ccc(CN(CCOc2ccc(CCC(=O)O)cc2)c2nc3ccccc3s2)cc1	4880 nM	6340 nM	
O=C(O)CCc1ccc(OCCCN(Cc2ccccc2)c2nc3ccccc3s2)cc1	2550 nM		
O=C(O)CCc1ccc(OCCN(Cc2ccccc2)c2nc3ccc(Cl)cc3s2)cc1	1360 nM		
O=C(O)CCc1ccc(OCCN(Cc2ccccc2)c2nc3ccccc3s2)cc1	2810 nM		
O=C(O)CCc1ccc(OCCN(Cc2ccc(C(F)(F)F)cc2)c2nc3ccccc3s2)cc1	940 nM	3690 nM	4460 nM
Cc1cc(OCCN(Cc2ccccc2)c2nc3ccccc3s2)ccc1CCC(=O)O	1170 nM		
Cc1ccc2nc(N(CCOc3ccc(CCC(=O)O)cc3)Cc3ccccc3)sc2c1	2610 nM		
O=C(O)CCc1ccc(OCCN(Cc2cccs2)c2nc3ccccc3s2)cc1	1740 nM		
